Literature values as cited in patent US20030175329A1, “Semisolid topical hormonal compositions and methods for treatment” (Cellegy Pharmaceuticals, Inc., priority 2001, published 2003).

Tests used:
[1] = 6 months
[2] = tested on: healthy males; details: 200 mg IM weekly
[3] = tested on: hypogonadal males; details: oral doses for at least 60 days; 23 hypogonadal males

## C[C@]12CC[C@H]3[C@@H](CCC4=CC(=O)CC[C@@]43C)[C@@H]1CC[C@@H]2O [Testosterone, testosterone]
Following IM injection
  dose excreted in urine as glucuronide and sulfate conjugates of testosterone and its metabolites: about 90%
In vivo
  excreted mostly unconjugated in the feces: About 6%

## CCCCCCC(=O)O[C@H]1CC[C@H]2[C@@H]3CCC4=CC(=O)CC[C@]4(C)[C@H]3CC[C@]12C [testosterone enanthate]
[1]
  serum BT levels maintained within the normal range throughout the dosing interval: 39%
  serum DHT levels maintained within the normal range throughout the dosing interval: 70%
  serum E2 levels maintained within the normal range throughout the dosing interval: 35%
  serum T levels maintained within the normal range throughout the dosing interval: 72%
[2]
  decrease of high-density lipoprotein cholesterol: 14-18%

## CCCCCCCCCCC(=O)O[C@H]1CC[C@H]2[C@@H]3CCC4=CC(=O)CC[C@]4(C)[C@H]3CC[C@]12C [testosterone undecanoate]
[3]
  men with measurable improvement in sexual attitudes and performance: 61%
